Where no end group is shown, it is not given here.

One test has as its system A549 cells. In words: MTT cell viability and proliferation assay. The following applies: Smp24 1.25-20 μM, 12, 24 and 48 h tested, time of the IC50 not stated, triplicate, consistent with ref 10. The test is classed as cell-based, human. As to the method: Cellular viability was analyzed via MTT method as reported in our previous study. Briefly, A549 cells (1 × 10^4 cells/well) were cultured in 96-well plates and treated with a gradient concentration of Smp24 (1.25–20 μM) at different time intervals (12, 24, and 48 h). A549 cells were pre-incubated with different inhibitors including 40 μΜ Nec-1, 40 μM Z-DEVD-FMK, 40 μM Z-VAD-FMK, and 2 mM NAC for 30 min before 5 μM Smp24 was incubated with the cells for 12 h to investigate the responsibility of different signaling pathways in the cytotoxic effects of Smp24. After incubation, 10 µL MTT (5 mg/mL) was then added and incubated for 4 h at 37 °C in the dark. Subsequently, 200 µL DMSO was applied into each well after discarding the cell medium, and the cell viability was estimated by calculating the absorbance value at 490 nm via a microplate reader (Tecan Company, Männedorf, Switzerland). The experiments were performed in triplicate.

Another test relates to MRC-5. In words: MTT cell viability assay, normal cells. The test is classed as cell-based. The following applies: time not stated, MRC-5 not described in methods. A general note: Tetrazolium assays rely on reduction of a dye to a coloured formazan, in cell work by metabolically active cells.

By IC50 is commonly meant the concentration that inhibits the measured activity by half. Regarding IWSFLIKAATKLLPSLFGGGKKDS [Smp24], the IC50 with A549 cells is ~4.06 µM; with MRC-5, ~14.7 µM.

For the origin of these results see paper PMC9502404, “The Strong Anti-Tumor Effect of Smp24 in Lung Adenocarcinoma A549 Cells Depends on Its Induction of Mitochondrial Dysfunctions and ROS Accumulation” (Toxins, 2022).
